Assay results published in US9302004B2, “Phenalene-1-one derivatives, method for producing same and use thereof” (TRIOPTOTEC GMBH, priority 2011, dated 2016).
Structures can show the parent of a compound that is named as a salt.

Key:
Assay type in all cases: cell-based
[1] = test system: Staphylococcus aureus (ATCC number: 25923); assay: Phototoxicity test (photodynamic activity, CFU assay) against gram-positive bacteria; details: for Required concentration in order to achieve a reduction by ≧ 3 log10 steps: S. aureus, 15 min incubation in darkness, then irradiation 12.3 J/cm^2 blue light (Emax 418 nm), CFU/ml 24 h after; for antimicrobial action compared with the starting substance perinaphthenone: from Table 1 (S. aureus and E. coli, sentence does not separate them), reduction of the germ count by 3 log10 steps; for times lower concentration needed to achieve a reduction by 3 log10 steps, compared with perinaphthenone: phototoxicity test, Table 1 (S. aureus and E. coli, sentence does not separate them)
Experimental: (§1) A sample of the bacterial strain Staphylococcus aureus (ATCC number: 25923) or Escherichia coli (ATCC number: 25922) was extracted from a cryogenically frozen culture, isolated on Müller-Hinton agar plates, and cultured under aerobic conditions at 37° C. in an overnight culture. 10 ml Müller-Hinton liquid medium was then inoculated with a smear of the bacterial culture (individual colony) and incubated overnight at 37° C. The thus-obtained bacterial suspension was centrifuged for 15 min at 3000 rpm and the obtained bacterial pellet was resuspended in 10 ml sterile PBS. The optical density of the bacterial suspensions for the phototoxicity tests was OD600nm=0.6, which corresponds to a bacterial count of ˜[…] bacteria per ml. The biochemical analysis and resistance determination of the bacteria were carried out with the VITEK2 system according to the guidelines M100-S14 of the NCCLS (National Committee for Clinical Laboratory Standards guidelines 2004).
(§2) 200 μl of a bacterial suspension (bacterial density: 10^8-10^12/ml) was incubated with 200 μl each of different concentrations of the photosensitizers listed in Table 1 at 37° C. in darkness for 15 minutes. The bacteria were then washed twice with PBS, resuspended in 200 μl PBS, the entire volume was transferred to a 96-well microtiter plate and then irradiated.
(§3) For the sensitization, the UV 236 lamp (emission 380-480 nm, with an emission maximum Emax: 418 nm) from Waldmann Medizintechnik was used and the plates lying on the light source were irradiated from below, in order to prevent scattering through the liquid. The applied light dose was 12.3 J/cm^2. As controls, bacterial suspensions that were irradiated, not irradiated and only incubated with photosensitizer were entrained, and incubated both with and without photosensitizer.
(§4) The CFU assay was then carried out to determine the colony-forming units per ml (CFU). For this, a series of dilutions from 10^−1 to 10^−9 of the corresponding bacterial suspension was produced. 100 μl was then plated onto Müller-Hinton plates and incubated at 37° C. for 24 h. The number of surviving colonies was then determined by counting and plotted on a graph as colony-forming units (CFU) per ml against the respectively used photosensitizer concentration.

[2] = test system: Escherichia coli (ATCC number: 25922); assay: Phototoxicity test (photodynamic activity, CFU assay) against gram-negative bacteria; details: E. coli; 15 min incubation in darkness, then irradiation 12.3 J/cm^2 blue light (Emax 418 nm); CFU/ml 24 h after
Experimental: as §1, §2, §3, §4

S. aureus = assay: Surface disinfection of catheter tubes, cell count after illumination; details: catheter sections with dried S. aureus; 5 min in darkness, 12.3 J/cm^2 blue light (Emax 418 nm) for 30 min
Experimental: 5-cm long catheter sections were filled with 1 ml of a stable S. aureus solution (1 E+12 cfu/ml) and incubated overnight at 37° C. After drying-out of the solution, in each case 2 ml of a solution of PBS which contained a corresponding concentration (0, 1, 10, 50, 80 and 100 μM) of the compounds produced in Examples 2), 4b), 5b), 7) and 10) and 1H-phenalene-1-one was sprayed. After a short exposure time of 5 minutes in darkness, the catheter sections were illuminated with a light dose of 12.3 J/cm^2 with blue light (Emax: 418 nm) for a period of 30 min.
As a control, in each case non-illuminated catheter sections were used, to which the corresponding concentrations (0, 1, 10, 50, 80 and 100 μM) of the compounds produced in Examples 1b)-f) and 1H-phenalene-1-one were applied.
To determine the cell count, the illuminated and non-illuminated catheter sections were filled with 1 ml PBS and ultrasounded. Growth medium was added to the washing solution in different dilutions (10^0 to 10^7) and the solution was smeared onto agar plates. The cell count was performed after 24 h of incubation at 37° C.

Compound	Required concentration in order to achieve a reduction by ≧ 3 log10 steps [1]	antimicrobial action compared with the starting substance perinaphthenone [1]	times lower concentration needed to achieve a reduction by 3 log10 steps, compared with perinaphthenone [1]	Required concentration in order to achieve a reduction by ≧ 3 log10 steps [2]	times lower concentration needed to achieve a reduction by 3 log10 steps, compared with perinaphthenone (S. aureus)
NCCOCC1=Cc2cccc3cccc(c23)C1=O [Example 4b, 2-((2-Aminoethoxy)methyl)-1H-phenalene-1-one hydrochloride]	50 μM	improved antimicrobial action	approximately 10 times	300 μM	approximately 10 times
O=C1C(C[n+]2ccccc2)=Cc2cccc3cccc1c23 [Example 7]	80 μM	improved antimicrobial action	approximately 10 times	10 μM	approximately 10 times
O=C1C=Cc2cccc3cccc1c23 [Comparison, perinaphthenone, reference compound]	200 μM	–	–	300 μM	–
NCC1=Cc2cccc3cccc(c23)C1=O [Example 2, 2-Aminomethyl-1H-phenalene-1-one]	1 μM	improved antimicrobial action	approximately 10 times	50 μM	approximately 10 times
CC[N+](CC)(CC)CC1=Cc2cccc3cccc(c23)C1=O [Example 10, 2-((N,N,N-Triethyl)aminomethyl)-1H-phenalene-1-one hydrochloride]	50 μM for S. aureus; 50 μM for E. coli	improved antimicrobial action	approximately 10 times	50 μM for S. aureus; 50 μM for E. coli	approximately 10 times
NCCOCCOCC1=Cc2cccc3cccc(c23)C1=O [Example 5b, 2-((2-(2-Aminoethoxy)ethoxy)methyl)-1H-phenalene-1-one hydrochloride]	50 μM	improved antimicrobial action	approximately 10 times	80 μM	approximately 10 times
